Measured values reported in patent US20080132564A1, “MICELLAR DRUG DELIVERY VEHICLES AND PRECURSORS THERETO AND USES THEREOF” (ANGIOTECH INTERNATIONAL AG, priority 2001, published 2008).

Experiments:
[1] = Solubility of paclitaxel in organic solvents
[2] = Recovery of paclitaxel added to polymer mixtures after heating (reverse phase HPLC, UV detection); type: physicochemical
Method: The desirability of removing unreacted starting materials and/or acidic reaction by-products can be seen by reference to the data in Table 1. […] According to the data, when paclitaxel is combined with a diblock copolymer having up to 2% residual monomer and up to 0.2 μmol/mg acid content (expressed as the number of protons titrated in a solution prepared by dissolving 1 mg of diblock copolymer in water), after heating, only 95% of the paclitaxel initially added to the mixture could be recovered, as quantified using a reverse phase HPLC assay with UV detection and a taxane optimized C18 column.

amount of paclitaxel that may be dissolved in NMP ([1]; in 1 mL of NMP): 535 mg
amount of paclitaxel that may be dissolved in ethanol ([1]; in ethanol (volume not given)): 26 mg
paclitaxel initially added that could be recovered after heating ([2]; combined with diblock copolymer having up to 2% residual monomer and up to 0.2 μmol/mg acid content): 95%
paclitaxel recovered after heating ([2]; combined with methoxypolyethylene glycol having no measured acidic components and no DL-lactide monomer): 99%
paclitaxel that could be recovered after heating ([2]; diblock copolymer with greatly reduced quantities of residual monomer and acidic components): 98%
SMILES: CC(=O)O[C@H]1C(=O)[C@@]2(C)[C@H]([C@H](OC(=O)c3ccccc3)[C@]3(O)C[C@H](OC(=O)[C@H](O)[C@@H](NC(=O)c4ccccc4)c4ccccc4)C(C)=C1C3(C)C)[C@]1(OC(C)=O)CO[C@@H]1C[C@@H]2O [paclitaxel]
